In patent publication US20080132415A1, “Method For Increasing Maize Yields” (priority 2004, published 2008):
Like-named read-outs stand apart in the source and are kept apart here. Marks after values point to notes of the source that are not given here.

Tests used:
[1] = tested on: corn hybrids Pioneer 33K81 and Pioneer 33P66; assay: Field study of isoxadifen with postemergence corn herbicides (Example 1), both hybrids or hybrid not stated; assay type: in vivo
[2] = tested on: Golden Harvest hybrid corn; assay type: in vivo
Description: The hybrid corn species Golden Harvest was used in the study.
On one or more of the herbicides were used in combination with the insecticide chlorpyrifos—841 g/ha and with or without isoxadifen—37 g/ha.
A CO2 backpack sprayer was used to apply the compounds at 187 L/ha at 247 kPa.

[3] = tested on: Pioneer 33P66 hybrid corn; settings: applied at V6 growth stage at 1x field use rates, isoxadifen 37 g/ha where included
Procedure: The study was conducted in Bloomington, DeKalb and Urbana, Ill. to evaluate the crop response when isoxadifen was used with postemergence corn herbicides. Two hybrid corn species with different levels of tolerance were used in the study: Pioneer 33K81, a species sensitive to plant growth regulators (PGRs), isoxazole, amides and sulfonylureas (SUs); and Pioneer 33P66, a tolerant species. Plots were kept weed-free to eliminate any competition from weeds.
The following herbicides and their respective field use rates were used in the study:
rimsufuron—26 g/ha; nicosulfuron+rimsulfuron—39 g/ha; foramsulfuron—37 g/ha; diflufenzopyr+dicamba—294 g/ha; mesotrione—105 g/ha; and dicamba—560 g/ha. One or more of the herbicides were used with or without isoxadifen—37 g/ha. All herbicides were applied at the 1× labeled field use rates.
Timing of the application of the compounds was at the V6 growth stage (i.e., when there were six visible collars of the corn). Additionally, methylated seed oil (MSO)+28% […] (UAN) were applied at a concentration of 1% v/v+2.5% v/v.

[4] = tested on: Pioneer 33K81 hybrid corn; assay: Field study of isoxadifen with postemergence corn herbicides (Example 1), hybrid Pioneer 33K81; assay type: in vivo
Description: Timing of the application of the compounds was at the V6 growth stage (i.e., when there were six visible collars of the corn). Additionally, methylated seed oil (MSO)+28% ureas and ammonium sulfate (UAN) were applied at a concentration of 1% v/v+2.5% v/v.

[5] = herbicide in combination with chlorpyrifos 841 g/ha and isoxadifen 37 g/ha, seven days post application
[6] = herbicide in combination with chlorpyrifos 841 g/ha, without isoxadifen, seven days post application
[7] = herbicide in combination with chlorpyrifos, without isoxadifen
[8] = percentage of control, herbicide in combination with chlorpyrifos 841 g/ha and isoxadifen 37 g/ha
[9] = percentage of control, herbicide in combination with chlorpyrifos 841 g/ha, without isoxadifen

Row | SMILES | crop injury when tank-mixed with isoxadifen, compared with the same herbicide without isoxadifen ([1]; both hybrids, 7 days after treatment) | CORN INJURY Chlor + Isoxadifen ([2]; in vivo) | CORN INJURY Chlorpyrifos ([2]; in vivo) [%] | CORN YIELD Chlor + Isoxadifen ([2]; in vivo) | CORN YIELD Chlorpyrifos ([2]; in vivo) [%] | corn injury compared to the application of the same combination and isoxadifen ([2]; in vivo) | corn yield compared to the application of the same combination and isoxadifen ([2]; in vivo) | PERCENTAGE OF CORN INJURY Pioneer 33P66 ([3]; 7 days post application) [%] | CORN YIELD - PERCENTAGE OF CONTROL Pioneer 33P66 ([3]; percentage of control) [%] | PERCENTAGE OF CORN INJURY Pioneer 33K81 ([4]; 7 days post application, applied at V6 growth stage at 1x field use rates, isoxadifen 37 g/ha where included) [%] | CORN YIELD - PERCENTAGE OF CONTROL Pioneer 33K81 ([4]; percentage of control, applied at V6 growth stage at 1x field use rates, isoxadifen 37 g/ha where included) [%] | CORN INJURY Chlor + Isoxadifen [2, 5] | CORN INJURY Chlorpyrifos [2, 6] [%] | corn injury compared to the application of the same combination and isoxadifen [2, 7] | corn yield compared to the application of the same combination and isoxadifen [2, 7] | CORN YIELD Chlor + Isoxadifen [2, 8] | CORN YIELD Chlorpyrifos [2, 9] [%] | difference in adding isoxadifen ([1]; hybrid not stated, data not shown) | crop injury when tank-mixed with isoxadifen ([4]; P33K81 hybrid corn, addition of isoxadifen, data not shown)
1 | COc1c(Cl)ccc(Cl)c1C(=O)O [Dicamba, dicamba] | less crop injury | 37 * % | 65 | 86 * % | 75 | significantly more corn injury | significantly smaller corn yield | 36 | 89 | 25 | 81 |  |  |  |  |  |  |  | 
2 | COc1cc(OC)nc(NC(=O)NS(=O)(=O)c2cc(NC=O)ccc2C(=O)N(C)C)n1 [Foramsulfuron, foramsulfuron] |  |  |  |  |  |  |  |  |  |  |  | 37 * % | 47 | significantly more corn injury | significantly smaller corn yield | 92 * % | 82 |  | 
3 | CS(=O)(=O)c1ccc(C(=O)C2C(=O)CCCC2=O)c([N+](=O)[O-])c1 [Mesotrione, mesotrione] |  |  |  |  |  |  |  |  |  |  |  | 12 * % | 34 | significantly more corn injury | no significant difference | 97% | 97 | no significant difference | 
4 | CCS(=O)(=O)c1cccnc1S(=O)(=O)NC(=O)Nc1nc(OC)cc(OC)n1 [Rimsulfuron, rimsulfuron] |  |  |  |  |  |  |  |  |  |  |  | 45% | 37 | no significant difference | significantly smaller corn yield | 95 * % | 65 |  | less crop injury
